The source of these data is patent US12383573B2, “Use of luteolin-7-O-glucoside or luteolin-7-O-glucuronide in preparation of medicine for eye injuries” (BEIJING CHENGYI INVESTMENT CO., LTD., priority 2019, dated 2025).

Holding throughout (assay type): cell-based
Data set [1] deals with human retinal pigment epithelial cells ARPE-19. In words: Cytotoxicity on human retinal pigment epithelial cells ARPE-19 (MTT). The note with it: ARPE-19, 12.5˜100 μmol/L, 24 h. The protocol: ARPE-19 cells (purchased from Guangzhou Jinnuo Biotechnology Co., Ltd., China) were seeded into RPMI-1640 low-glucose cell culture medium containing 10% fetal bovine serum and 1% dual-antibiotics (penicillin-streptomycin) (culture medium containing 2 g/L D-glucose, 0.3 g/L L-glutamine and 2 g/L sodium bicarbonate), and the medium was replaced once every 3 days for future use.
Cells at exponential growth phase were used, and 100 μl of complete medium was added to each well to reach a concentration of 1×10^4 cells/mL. Then the cells were cultured in a humidified atmosphere at 37° C. and 5% CO2 for 24 h. After the cells fully adhered, luteolin-7-O-glucoside and luteolin-7-O-glucuronide with final concentrations of 12.5 μmol/L, 25 μmol/L, 50 μmol/L, and 100 μmol/L were added respectively, and cultured for 24 h.
The cell viability was determined by the 3-(4,5-dimethyl-2-thiazolyl)-2,5-diphenyl-2-H-tetrazolium […] (MTT) method: 20 μl of 5 mg/ml MTT was added to each well, and the cells were cultured in a CO2 incubator for 4 h, with all operations shielded from light. […] The absorbance of ARPE-19 cells was measured with a microplate reader at 490 nm, and the cell survival rate was calculated as follows: cell survival rate=(OD value of experimental group−OD value of blank group)/(OD of control group−OD of blank group)×100%.

The test system is the same in data set [2]. Briefly: Intracellular ROS content by DHE staining in blue light-damaged ARPE-19 cells. The note with it: A2E + blue light, vs model group. The method, then:
A single layer of ARPE-19 cells were seeded and cultured in a 24-well plate with a cell concentration of 5×10^4 cells/well. After treatment as described in Example 2, the cells were washed twice with PBS and reactive oxygen species (ROS) fluorescent probe dihydroethidium (DHE) staining solution with a concentration of 20 μmol/L was added, and the cells were incubated at 37° C. for 20 min. Then, the cells were washed twice with PBS to fully remove the DHE probe that had not entered the cell, and then imaging was performed under an inverted microscope with an excitation wavelength of 540 nm and an emission wavelength of 590 nm.

Data set [3] has the same test system. Briefly: Hoechst 33342 nuclear staining (apoptosis) in blue light-damaged ARPE-19 cells. The note with it: A2E + blue light, vs model group. The protocol: The cells were seeded in a 24-well plate (5×10^4 cells/well), and after the treatment as previously described, the fix solution was added and incubated for 30 min. Then the cells were washed three times with PBS, added with live cell staining solution (Hoechst 33342) with a concentration of 20 μg/mL, and incubated for 15 min at room temperature shielded from light. After the cells were washed with PBS, imaging was performed under an inverted fluorescence microscope with an excitation wavelength of 365 nm and an emission wavelength of 460 nm.

For data set [4] the test system is unchanged. In words: Blue light-induced damage to A2E-pretreated ARPE-19 cells, cell survival (MTT). The following applies: 12.5˜50 μmol/L. The protocol:
ARPE-19 cells were seeded into RPMI-1640 low-glucose cell culture medium containing 10% fetal bovine serum and 1% dual-antibiotics (penicillin-streptomycin), and the medium was replaced once every 3 days for future use.
Cells at exponential growth phase were used, and cells at 500 μl/well were seeded to a 24-well cell culture plate at a concentration of 5×10^4 cells/mL, and cultured in a humidified atmosphere at 37° C. and 5% CO2. After the cells fully adhered, the medium was replaced with the DMEM culture medium containing 25 μmol/L N-retinylidene-N-retinyl ethanolamine (A2E) for 2 hours of culture. Then, the supernatant was discarded, and the cells were washed 3 times with PBS, added with the luteolin-7-O-glucoside and luteolin-7-O-glucuronide with final concentrations of 12.5 μmol/L, 25 μmol/L, and […] respectively for 6 h of continuous culture, and then placed in a blue light device (50W LED blue light board with a blue light intensity of 3230˜3540 Lux) for 4 h of irradiation. After the light irradiation, the cells were placed in a 37° C. and 5% CO2 incubator again and continued to incubate for 24 h. […] The OD values were measured with a multi-well microplate reader at 490 nm, and the cell survival rate was calculated as follows: cell survival rate=(OD value of experimental group−OD value of blank group)/(OD of control group−OD of blank group)×100%. […]

On to `O=c1cc(-c2ccc(O)c(O)c2)oc2cc(O[C@@H]3O[C@H](CO)[C@@H](O)[C@H](O)[C@H]3O)cc(O)c12` [luteolin-7-O-glucoside], for which, in data set [1], the “cytotoxicity on ARPE-19 (in words)” value was “no cytotoxicity”. The “intracellular fluorescence intensity (ROS content, DHE staining)” value in data set [2] is reported as “decreased significantly as the dose increased”. Also, the “cell status / nuclear condensation (Hoechst 33342, apoptosis)” value in data set [3] is recorded as “the cell status had obviously improved”. Further, the “concentration dependence of the cell survival rate (in words)” value in data set [4] is listed as “concentration-dependent”.

With `O=C(O)[C@H]1O[C@@H](Oc2cc(O)c3c(=O)cc(-c4ccc(O)c(O)c4)oc3c2)[C@H](O)[C@@H](O)[C@@H]1O` [luteolin-7-O-glucuronide], the “cytotoxicity on ARPE-19 (in words)” value in data set [1] is “no cytotoxicity”. In addition, the “concentration dependence of the cell survival rate (in words)” value in data set [4] is on record as “concentration-dependent”.
